# Experimental data from paper PMC7604311, “Caprine Bactenecins as Promising Tools for Developing New Antimicrobial and Antitumor Drugs” (Frontiers in Cellular and Infection Microbiology, 2020).
# Bridge positions count the residues as written; N and C are the ends. Ends that are not written are not given here.
# Columns and labels:
# [1] = test system: E. coli ML-35p; experiment: Broth microdilution assay (MIC); format: cell-based, Escherichia coli; conditions: 50% MH broth/50% 10 mM Na-P buffer pH 7.4 with 0.1% BSA, 1×10^6 CFU/ml, 20 h, median of 3–6 independent experiments in triplicate
# Experimental: The minimal inhibitory concentrations (MIC) of peptides were determined using microdilution assay in Müller–Hinton (MH) broth in general accordance with the guidelines of the European Committee for Antimicrobial Susceptibility Testing. Test plates were additionally pretreated with 0.1% bovine serum albumin (BSA) in distilled H2O (incubated for 1 h at 37°C) to reduce possible non-specific binding of peptides to the plastic surface of the wells, as proposed for AMP activity measuring ([Tossi et al., 1997]; [Wiegand et al., 2008]). Two-fold serial dilutions of peptides starting with 2 × stock concentration were prepared in sterile 10 mM sodium phosphate (Na-P) buffer, pH 7.4, with 0.1% BSA. Thus, final solutions contained 50% of Na-P diluted peptide and 50% of MH broth with bacteria. Bacteria for testing were grown overnight, then transferred into a fresh portion of 2.1% MH medium and additionally incubated for 2–3 h to obtain bacterial culture in its mid-logarithmic growth phase, which was diluted down to the final concentration of 1 × 10^6 CFU/ml. Concentration of bacteria in growth medium was calculated based on its absorbance at 620 nm.
# After 20 h of incubation of AMPs with bacteria MICs were determined as lowest concentrations of AMPs completely preventing the visible growth of bacteria. Tests were performed in 60-well Terasaki microplates (10 µl end volume, V-shaped bottom; Sarstedt, Germany); dilutions in each test were made in triplicate. Final MIC values were calculated as medians based on the results of 3–5 independent experiments.
# [2] = Standard acute toxicity test; format: in vivo; conditions: at the utilized doses (1 or 100 μg per animal); data not shown
# [3] = test system: K562 cells; experiment: Trypan blue dye exclusion assay; format: cell-based, human; conditions: K562, 1×10^6 cells/ml, serum-free RPMI-1640, first 3 h of incubation
# Experimental: Living cells exclude the dye, so that their cytoplasm remains clear. When damaged cells take up the dye, it binds to intracellular proteins and renders them a blue color. Cells suspended to a concentration of 1 × 10^6 per ml in RPMI-1640 medium (serum-free) were incubated with various concentrations of the peptides of interest for various periods of time at 37°C and 5% CO2. Then they were stained with 0.2% trypan blue dye solution in PBS for 3 min at room temperature, and dead and living cells were counted using a hemocytometer. Percentage of viable cells was calculated as follows:
# (3) Viable cells (%) =total number of viable cells/total number of cells×100%,
# Experiments were repeated three times before plotting time-killing curves. For each time point, data are presented as mean with standard deviation (SD).
# [4] = test system: K562 cells; experiment: Annexin V-Cy3 apoptosis detection assay; format: cell-based, human; conditions: K562, 2 h incubation with peptide, Annexin-Cy3.18/6-CFDA staining
# From the text: Annexin V-Cy3 Apoptosis Detection kit (Sigma, USA) was used to distinguish between cells dying via necrosis and cells entering apoptosis. This kit includes a combination of red and green fluorescent dyes; 6-Carboxyfluorescein diacetate (6-CFDA) is hydrolyzed by esterases inside viable (still functional) cells, producing the green fluorescent compound 6-carboxyfluorescein. Annexin-Cy3.18, giving red fluorescence, binds to phosphatidylserine which only becomes exposed in the outer leaflet of the plasma membrane for cells entering the apoptotic process, or if the plasma membrane is damaged during necrosis. Thus, living cells are only stained green, necrotic ones are only stained red, while cells in the early stages of apoptosis are stained by both dyes.
# To assess the effects of the peptides, cells were incubated in their presence for 2 h under the same conditions as described for trypan blue assay. […] After 10 min incubation at room temperature cells were washed from excess dyes with 1 × binding buffer and analyzed under the luminescent microscope (Leica DM2500, Leica Microsystems, Germany). […] The resulting percentage of viable, apoptotic, and necrotic cells are shown as mean with SD, calculated based on three independent experiments.
Substance,MIC [1] [µM],Toxic action in acute toxicity test [2],Dynamics of cytocidal action [3],Apoptosis versus necrosis [4]
RFRLPFRRIHPPPFVRIHPPPFYRRFL [ChBac3.4-1-COOH],2 to 4,no visible signs of toxic action,,
"protegrin 1 (RGGRLCYCRRRFCVCVGR-NH2; disulfide 8-13, 6-15; ends not checked; UniProt P32194 131-148, looked up) [PG-1]",,,"swift and pronounced effect, observable in the first 30 min of exposure","prominent, dose-dependent prevalence of necrosis over apoptosis"
